The source of these data is patent publication US20260364184A1, “COMPOUND BASED ON OXOISOINDOLINYL-SUBSTITUTED TETRAHYDROPYRIMIDINE-DIONE AND USE THEREOF” (GLUETACS THERAPEUTICS (SHANGHAI) CO., LTD., priority 2023, published 2026).

One experiment has as its target T1, BCL-2 (Homo sapiens, UniProt P10415).
T1 construct: expression of target proteins in cells; endogenous in cells
Put plainly: Western blot degradation of BCL-2. Type of experiment: cell-based. The settings on record: Molt-4 Cell; 24 hours. As to the method: Conventional Western blot assay was performed to evaluate the effects of the compounds of the present disclosure on the expression of target proteins in cells.
(1) Cell Seeding and Protein Harvesting: The selected cells were processed according to the cell seeding procedure and protein harvesting procedure in Table II-2.
(2) To the collected supernatant, 5×SDS sample loading buffer was added, followed by denaturation at 95 °C for 5 minutes. The denatured samples were then separated by SDS-PAGE electrophoresis on a polyacrylamide gel. Proteins were transferred to a nitrocellulose membrane (0.45 μm NC membrane), blocked with blocking buffer at room temperature for 1 hour, and subjected to antibody incubation and development procedures according to the antibody manufacturer's instructions (Cell Signaling Technology).
Half-Maximal Degradation Concentration value (the drug concentration required for degrading proteins by 50%, abbreviated as DC50) reads method: comparing the grayscale values of Western blot bands from drug-treated samples with those from blank DMSO-treated controls, and identifying the drug concentration range at which the grayscale value is half that of the DMSO-treated control bands.
DC50 values can be calculated using ImageJ software to measure grayscale values of Western blot bands from drug-treated samples. The concentration-response curve is fitted to estimate the drug concentration corresponding to half the grayscale value.
Target protein remaining (%) refers to the percentage of target protein remaining in cells after treatment with protein degrader compounds.
Calculation method for target protein remaining (%): Use ImageJ software to measure grayscale values of Western blot bands from drug (protein degrader)-treated samples. The grayscale value of drug-treated bands is divided by that of internal control protein bands, and the resulting quotient is normalized to obtain the relative percentage of remaining target protein after protein degrader treatment.
Target protein degradation rate (%)=1−target protein remaining (%).
In general terms: A western blot detects proteins with antibodies after separation by electrophoresis.

Experiment [1] relates to Human prostate cancer cell line (NCI-H358). The experiment is described as follows: Inhibition of NCI-H358 cell proliferation (CellTiter luminescent viability). The following applies: Table IH1, BCL-2 inhibitor-based, 96 hours; for inhibition at 0.01 µM: NCI-H358, 10 nM, read-out: Inhibition Rate at 10 nM (%); for inhibition at 0.5 µM: NCI-H358, 500 nM, read-out: Inhibition Rate at 500 nM (%). Here is the method: The tumor cells used herein were cultured in a cell culture medium listed in table 3 at 37 °C in an incubator with 5% CO2. Prior to experimentation, all cell lines used were correctly identified by STR profiling, and tested negative for mycoplasma contamination using a mycoplasma detection kit through routine screenings.
The IC50 values of the compounds of the present disclosure (including the compounds in Table 1, Table 2, and Examples 1-468) were determined using the CellTiter-Meiluncell Luminescent Cell Viability Assay Kit from Dalian Meilun Biotech Co., Ltd. The detailed procedure is as follows: Tumor cells were seeded in 96-well cell culture plates at the densities specified in Table 4. On the following day, the test compounds of the present disclosure were subjected to serial dilution. The dilution can be performed according to one of the following two methods: • (1) The first dilution method: The test compounds of the present disclosure (including the compounds in Table 1, Table 2, and Examples 1-468) were subjected to 5-fold serial dilutions starting from a highest concentration of 2000 μM, resulting in a total of 9 concentrations from high to low (2000, 400, 80, 16, 3.2, 0.64, 0.128, 0.0256, 0.00512 μM). Subsequently, 0.5 μL of the test compound dilution was transferred into the 96-well plate containing the cells, with each well containing 100 μL of cell culture medium. […] Into the 96-well plate, the diluted test compounds and corresponding detection reagents were added, resulting in final test compound concentrations of 500 nM and 10 nM, respectively. The experimental procedure is described below using the diluted 2 μM test compound as an example.
0.5 μL of the aforementioned diluted compound of the present disclosure (including the compounds in Table 1, Table 2, and Examples 1-468) was added to the seeded cells in 100 μL of medium, yielding a final test compound concentration of 10 nM. After the cells were treated with the compounds of the present disclosure for a specified period, the cell viability assay reagent was added to the culture medium according to the kit's instructions to determine cell viability. […] All controls were treated using the same procedure as the compounds of the present disclosure. The growth inhibition curves for the compounds of the present disclosure were plotted using Prism GraphPad software, and the IC50 values were calculated therefrom.

For experiment [2], the system named is Human Acute T Lymphoblastic Leukemia Cells (Molt-4). The experiment is described as follows: Inhibition of Molt-4 cell proliferation (CellTiter luminescent viability). Type of experiment: cell-based. The following applies: Homo sapiens, MOLT-4, 96 h, Table IH3, BCL-2 inhibitor-based, 96 hours; for inhibition at 0.01 µM: Molt-4, 10 nM, read-out: Inhibition Rate at 10 nM (%); for inhibition at 0.5 µM: Molt-4, 500 nM, read-out: Inhibition Rate at 500 nM (%).

For experiment [3], the system named is Human acute lymphocytic leukemia T lymphocytes cell line (CCRF-CEM). The experiment is described as follows: Inhibition of CCRF-CEM cell proliferation (CellTiter luminescent viability). Type of experiment: cell-based. The following applies: Homo sapiens, 96 h, Table IH2, BCL-2 inhibitor-based; for inhibition at 0.01 µM: 10 nM, read-out: Inhibition Rate at 10 nM (%); for inhibition at 0.5 µM: 500 nM, read-out: Inhibition Rate at 500 nM (%).

T1 sequence (P10415 whole entry): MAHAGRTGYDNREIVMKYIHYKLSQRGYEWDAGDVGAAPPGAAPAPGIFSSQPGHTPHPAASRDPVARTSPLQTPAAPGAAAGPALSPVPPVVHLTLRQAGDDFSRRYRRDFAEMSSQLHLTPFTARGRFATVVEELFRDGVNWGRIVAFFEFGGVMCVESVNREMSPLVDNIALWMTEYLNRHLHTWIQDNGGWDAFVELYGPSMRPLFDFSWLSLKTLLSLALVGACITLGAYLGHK

Broadly, the inhibition is the change of the read-out against control, counted positive when it falls. On to `CC1(C)CCC(c2ccc(Cl)cc2)=C(CN2CCN(c3ccc(C(=O)NS(=O)(=O)c4ccc(N[C@H](CCN5C6CCC5CN(Cc5ccc7c(c5)CN(N5CCC(=O)NC5=O)C7=O)C6)CSc5ccccc5)c(S(=O)(=O)C(F)(F)F)c4)cc3)CC2)C1` [GT-07814, 4-(4-((4′-chloro-4,4-dimethyl-3,4,5,6-tetrahydro-[1,1′-biphenyl]-2-yl)methyl)piperazin-1-yl)-N-((4-(((2R)-4-(3-((2-(2,4-dioxotetrahydropyrimidin-1(2H)-yl)-1-oxoisoindolin-5-yl)methyl)-3,8-diazabicyclo[3.2.1]octan-8-yl)-1-(phenylthio)butan-2-yl)amino)-3-((trifluoromethyl)sulfonyl)phenyl)sulfonyl)benzamide], for which the “Degradation of substrate protein BCL-2 (substrate protein remaining %)” value (shortened to “Degradation … (substrate protein remaining %)”) on BCL-2 is “A (0%≤substrate protein remaining %≤80%)”. Moreover, the inhibition at 0.01 µM in experiment [1] was 15 to 20%; in experiment [2], 80 to 100%; in experiment [3], 50 to 60%. The inhibition at 0.5 µM in experiment [1] lay within 40 to 50%; in experiment [2], 80 to 100%; in experiment [3] it was 80 to 100%.
In the case of `CC1(C)CCC(c2ccc(Cl)cc2)=C(CN2CCN(c3ccc(C(=O)NS(=O)(=O)c4ccc(N[C@H](CCN5CC6CCC5CN6Cc5ccc6c(c5)CN(N5CCC(=O)NC5=O)C6=O)CSc5ccccc5)c(S(=O)(=O)C(F)(F)F)c4)cc3)CC2)C1` (stereo partly drawn) [GT-07811, 4-(4-((4′-chloro-4,4-dimethyl-3,4,5,6-tetrahydro-[1,1′-biphenyl]-2-yl)methyl)piperazin-1-yl)-N-((4-(((2R)-4-(5-((2-(2,4-dioxotetrahydropyrimidin-1(2H)-yl)-1-oxoisoindolin-5-yl)methyl)-2,5-diazabicyclo[2.2.2]octan-2-yl)-1-(phenylthio)butan-2-yl)amino)-3-((trifluoromethyl)sulfonyl)phenyl)sulfonyl)benzamide], at BCL-2, the “Degradation … (substrate protein remaining %)” value is “A (0%≤substrate protein remaining %≤80%)”. The inhibition at 0.01 µM in experiment [1] lay within 15 to 20%; in experiment [2], 40 to 50%; in experiment [3], 5 to 10%. Further, the inhibition at 0.5 µM in experiment [1] lay within 40 to 50%; in experiment [2], 80 to 100%; in experiment [3], 80 to 100%.
`CC1(C)CCC(c2ccc(Cl)cc2)=C(CN2CCN(c3ccc(C(=O)NS(=O)(=O)c4ccc(N[C@H](CCN5C[C@H]6C[C@@H]5CN6Cc5ccc6c(c5)C(=O)N(N5CCC(=O)NC5=O)C6=O)CSc5ccccc5)c(S(=O)(=O)C(F)(F)F)c4)cc3)CC2)C1` [GT-07816, 4-(4-((4′-chloro-4,4-dimethyl-3,4,5,6-tetrahydro-[1,1′-biphenyl]-2-yl)methyl)piperazin-1-yl)-N-((4-(((R)-4-((1R,4R)-5-((2-(2,4-dioxotetrahydropyrimidin-1(2H)-yl)-1,3-dioxoisoindolin-5-yl)methyl)-2,5-diazabicyclo[2.2.1]heptan-2-yl)-1-(phenylthio)butan-2-yl)amino)-3-((trifluoromethyl)sulfonyl)phenyl)sulfonyl)benzamide]: the “Degradation … (substrate protein remaining %)” value on BCL-2 is “A (0%≤substrate protein remaining %≤80%)”. Besides, in experiment [2], the inhibition at 0.01 µM was 10 to 15% and the inhibition at 0.5 µM was 60 to 70%. For the same compound, in experiment [3], the inhibition at 0.01 µM lay in the range of 5 to 10% and the inhibition at 0.5 µM fell in the range of 40 to 50%.
For the compound `CC1(C)CCC(c2ccc(Cl)cc2)=C(CN2CCN(c3ccc(C(=O)NS(=O)(=O)c4ccc(N[C@H](CCN5C[C@H]6C[C@@H]5CN6Cc5ccc6c(c5)CN(N5CCC(=O)NC5=O)C6=O)CSc5ccccc5)c(S(=O)(=O)C(F)(F)F)c4)cc3)CC2)C1` [GT-07812, 4-(4-((4′-chloro-4,4-dimethyl-3,4,5,6-tetrahydro-[1,1′-biphenyl]-2-yl)methyl)piperazin-1-yl)-N-((4-(((R)-4-((1R,4R)-5-((2-(2,4-dioxotetrahydropyrimidin-1(2H)-yl)-1-oxoisoindolin-5-yl)methyl)-2,5-diazabicyclo[2.2.1]heptan-2-yl)-1-(phenylthio)butan-2-yl)amino)-3-((trifluoromethyl)sulfonyl)phenyl)sulfonyl)benzamide], the “Degradation … (substrate protein remaining %)” value on BCL-2 is “A (0%≤substrate protein remaining %≤80%)”. For the same compound, the values for the inhibition at 0.01 µM in experiment [1], in experiment [2] and in experiment [3] were 30 to 40%, 50 to 60% and 20 to 30%, respectively. The values for the inhibition at 0.5 µM in experiment [1], in experiment [2] and in experiment [3] were 50 to 60%, 80 to 100% and 80 to 100%, respectively.
For `CC1(C)CCC(c2ccc(Cl)cc2)=C(CN2CCN(c3ccc(C(=O)NS(=O)(=O)c4ccc(N[C@H](CCN5CC6CCC5CN6Cc5ccc6c(c5)C(=O)N(N5CCC(=O)NC5=O)C6=O)CSc5ccccc5)c(S(=O)(=O)C(F)(F)F)c4)cc3)CC2)C1` (stereo partly drawn) [GT-07815, 4-(4-((4′-chloro-4,4-dimethyl-3,4,5,6-tetrahydro-[1,1′-biphenyl]-2-yl)methyl)piperazin-1-yl)-N-((4-(((2R)-4-(5-((2-(2,4-dioxotetrahydropyrimidin-1(2H)-yl)-1,3-dioxoisoindolin-5-yl)methyl)-2,5-diazabicyclo[2.2.2]octan-2-yl)-1-(phenylthio)butan-2-yl)amino)-3-((trifluoromethyl)sulfonyl)phenyl)sulfonyl)benzamide], on BCL-2, the “Degradation … (substrate protein remaining %)” value is reported as “A (0%≤substrate protein remaining %≤80%)”. For the same compound, the results for the inhibition at 0.01 µM in experiment [1], in experiment [2] and in experiment [3] were 15 to 20%, 5 to 10% and -5 to 0%, respectively. Also, the inhibition at 0.5 µM in experiment [1] lay within 30 to 40%; in experiment [2], 80 to 100%; in experiment [3], 50 to 60%.
